Experimental data published in patent publication US5532240A, “Condensed thiophene compound and pharmaceutical use thereof” (Yoshitomi Pharmaceutical Industries, Ltd., priority 1991, dated 1996).
Entries after “also recorded” stand apart in the source; their conditions may differ. Read-outs that look alike come from different tables or passages of the source.

What was measured:
[1] = target: T1, dopamine 2 (D2) receptor (Rattus norvegicus, UniProt P61169); assay: Affinity for dopamine 2 receptor (tritiated spiperone binding); parameters: species or system Wistar rats; conditions: rat corpus striatum synaptosomes; [3H]spiperone 0.2 nM; 37° C., 20 min
T1 construct: A synaptosome fraction was separated from corpus striatum; from tissue; host or cells: corpus striatum of 9-10 week-old Wistar rats, synaptosome fraction
T1 sequence (P61169 whole entry): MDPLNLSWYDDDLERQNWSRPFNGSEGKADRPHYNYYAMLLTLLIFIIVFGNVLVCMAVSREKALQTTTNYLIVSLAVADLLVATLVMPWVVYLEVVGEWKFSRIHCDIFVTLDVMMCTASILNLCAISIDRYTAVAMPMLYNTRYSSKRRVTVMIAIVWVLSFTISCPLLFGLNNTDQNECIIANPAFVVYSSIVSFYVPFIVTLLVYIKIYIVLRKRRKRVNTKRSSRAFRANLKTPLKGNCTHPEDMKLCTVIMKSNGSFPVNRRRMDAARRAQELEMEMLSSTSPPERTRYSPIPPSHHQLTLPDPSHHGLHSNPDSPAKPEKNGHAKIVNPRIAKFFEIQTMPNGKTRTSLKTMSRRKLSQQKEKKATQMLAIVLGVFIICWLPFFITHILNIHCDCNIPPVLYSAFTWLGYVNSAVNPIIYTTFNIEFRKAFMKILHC
Procedure: Affinity for dopamine 2 receptor
A specific binding of dopamine 2 (D2) receptor was tested according to the method described in Eur. J. Pharmacol. 46, 377 (1977).
A synaptosome fraction was separated from corpus striatum of 9-10 week-old Wistar rats, and suspended in 50 mM Tris-HCl buffer (pH 7.1) containing 120 mM sodium chloride, 5 mM potassium chloride, 2 mM calcium chloride, 1 mM magnesium chloride, 10 μM pargyline and 0.1% ascorbic acid for the experiment.
The test compound at several concentrations and tritiated spiperone (final concentration 0.2 nM) were added to the synaptosome suspension, and each mixture was incubated at 37° C. for 20 minutes. After the incubation, the mixture was filtered with suction through Whatman GF/B (trade mark) glass filter. The filter was washed with 50 mM Tris-HCl buffer (pH 7.7), and the radioactivity of the filter was measured by a liquid scintillation counter. Non-specific binding was determined in the presence of 10^-4 M (±)-sulpiride. The concentration necessary for 50% inhibition (IC50) was determined on a graph, and inhibition constant (Ki value) was calculated.

[2] = target: T2, serotonin 2 (5-HT2) receptor (Rattus norvegicus, UniProt P14842); assay: Affinity for serotonin 2 receptor (tritiated ketanserin binding); parameters: species or system Wistar rats; conditions: rat hippocampus crude synaptosomes; [3H]ketanserin 0.2 nM; 37° C., 20 min
T2 construct: A crude synaptosome fraction was separated from hippocampus; from tissue; host or cells: hippocampus of 9-10 week-old Wistar rats, crude synaptosome fraction
T2 sequence (P14842 whole entry): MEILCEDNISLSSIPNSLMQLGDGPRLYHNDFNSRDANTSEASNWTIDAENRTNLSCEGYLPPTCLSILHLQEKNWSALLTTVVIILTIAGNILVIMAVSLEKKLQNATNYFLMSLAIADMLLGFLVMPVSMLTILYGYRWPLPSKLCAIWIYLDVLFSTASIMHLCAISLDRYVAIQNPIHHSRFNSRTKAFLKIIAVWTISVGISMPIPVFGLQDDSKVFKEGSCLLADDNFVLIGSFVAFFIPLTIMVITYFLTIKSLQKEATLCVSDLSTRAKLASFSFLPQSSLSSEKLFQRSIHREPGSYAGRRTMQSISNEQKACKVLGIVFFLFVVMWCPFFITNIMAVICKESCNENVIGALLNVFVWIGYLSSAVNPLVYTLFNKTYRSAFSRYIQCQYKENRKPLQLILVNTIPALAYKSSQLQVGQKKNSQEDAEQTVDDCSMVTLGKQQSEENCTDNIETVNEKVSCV
Procedure: Affinity for serotonin 2 receptor
A specific binding of serotonin 2 (5-HT2) receptor was tested according to the method described in Mol. Pharmacol. 21, 301 (1981).
A crude synaptosome fraction was separated from hippocampus of 9-10 week-old Wistar rats, and suspended in 50 mM Tris-HCl buffer (pH 7.7) for the experiment. The test compound at several concentration and tritiated ketanserin (final concentration 0.2 nM) were added to the synaptosome suspension, and each mixture was incubated at 37° C. for 20 minutes. After the incubation, the mixture was filtered with suction through Whatman GF/B (trade mark) glass filter. The filter was washed with 50 mM Tris-HCl buffer (pH 7.7), and the radioactivity of the filter was measured by a liquid scintillation counter. Non-specific binding was determined in the presence of 10^-5 M mianserin. The concentration necessary for 50% inhibition (IC50) was determined on a graph, and inhibition constant (Ki value ) was calculated.

[3] = target: T3, serotonin 1A (5-HT1A) receptor (Rattus norvegicus, UniProt P19327); assay: Affinity for serotonin 1A receptor (tritiated 8-OH-DPAT binding); parameters: species or system Wistar rats; conditions: rat hippocampus crude synaptosomes; [3H]8-OH-DPAT 0.2 nM; 37° C., 12 min
T3 construct: A crude synaptosome fraction was separated from hippocampus; from tissue; host or cells: hippocampus of 9-10 week-old Wistar rats, crude synaptosome fraction
T3 sequence (P19327 1-422): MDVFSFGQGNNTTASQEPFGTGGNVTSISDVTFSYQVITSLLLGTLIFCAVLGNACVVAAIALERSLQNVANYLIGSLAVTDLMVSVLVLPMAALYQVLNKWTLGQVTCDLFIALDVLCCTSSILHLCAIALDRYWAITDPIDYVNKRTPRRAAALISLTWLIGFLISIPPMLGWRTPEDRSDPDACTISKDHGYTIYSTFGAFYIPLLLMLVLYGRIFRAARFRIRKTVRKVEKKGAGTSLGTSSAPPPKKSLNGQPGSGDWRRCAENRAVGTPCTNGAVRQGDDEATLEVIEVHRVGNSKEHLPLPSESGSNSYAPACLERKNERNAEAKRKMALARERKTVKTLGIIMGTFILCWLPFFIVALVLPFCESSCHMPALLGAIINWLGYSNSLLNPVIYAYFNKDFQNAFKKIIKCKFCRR
Procedure: Affinity for serotonin 1A receptor
A specific binding of serotonin 1A (5-HT1A) receptor was tested according to the method described in J. Neurochem. 44, 1685 (1985).
A crude synaptosome fraction was separated from hippocampus of 9-10 week-old Wistar rats, and suspended in 50 mM Tris-HCl buffer (pH 7.4) containing 1 mM manganese chloride for the experiment. The test compound at several concentrations and tritiated 8-hydroxy-2-dipropyl-aminotetralin(8-OH-DPAT, final concentration 0.2 nM) were added to the synaptosome suspension, and each mixture was incubated at 37° C. for 12 minutes. After the incubation, the mixture was filtered with suction through Whatman GF/B (trade mark) glass filter. The filter was washed with 50 mM Tris-HCl buffer (pH 7.7), and the radioactivity of the filter was measured by a liquid scintillation counter. Non-specific binding was determined in the presence of 10^-5 M serotonin (5-HT). The concentration necessary for 50% inhibition (IC50) was determined on a graph, and inhibition constant (Ki value) was calculated.

[4] = tested on: apomorphine-induced hyperactivity; assay: Anti-apomorphine action (in mouse); format: in vivo, male dd mice; conditions: oral, 60 min before 0.5 mg/kg s.c. apomorphine hydrochloride, movement lowered by 50%
Procedure: Anti-apomorphine action (in mouse)
Male dd mice at 3 per group were used for the experiment. The test compound was orally administered to the mice, and 60 minutes later, 0.5 mg/kg of apomorphine hydrochloride was subcutaneously administered. the movement for 20 minutes from immediately after the administration of apomorphine hydrochloride was measured using Valimex (Columbus, USA). Each group was tested four times, and the amount of the test compound necessary to lower the movement by 50% than that of a control group was calculated from a graph and taken as ED50.

[5] = tested on: ergometrine-induced head-twitches; assay: Anti-ergometrine action (head-twitch); format: in vivo, male ddY mice; conditions: Mus musculus; oral, 60 min before 20 mg/kg i.p. ergometrine maleate; head-twitch vanished, Probit
Procedure: Male ddY mice at 12 per group were used for the experiment. The test compound was orally administered to the mice, and 60 minutes later, 20 mg/kg of ergometrine maleate was intraperitoneally administered. The amount of the test compound necessary to vanish the head-twitch reaction for 10 minutes from immediately after the administration of ergometrine maleate was calculated as ED50 value by Probit method.

[6] = tested on: negative symptoms, EPS, depression and internal secretion in patients; conditions: cited from earlier work
[7] = tested on: catalepsy induced by haloperidol; conditions: preclinical; cited from earlier work
[8] = tested on: D2; conditions: cited from earlier work

## Cc1sc2c(c1CCN1CCC(c3noc4cc(F)ccc34)CC1)NC(=O)CCC2 [Example 22, 3-(2-(4-(6-fluoro-1,2-benzoxazolyl-3-yl)piperidin-1-yl)ethyl)-2-methyl-4,6,7,8-tetrahydro-5H-thieno[3,2-b]azepin-5-one]
[1]
  Ki: 0.52 nM
[2]
  Ki: 0.21 nM
[3]
  Ki: 15 nM
[4]
  ED50: 1.1 mg/kg
[5]
  ED50: 1.5 mg/kg

## Cc1nc2sccn2c(=O)c1CCN1CCC(=C(c2ccc(F)cc2)c2ccc(F)cc2)CC1 [ritanserin]
[6]
  EPS / side-effects in clinical use: reduces the incidence of EPS caused by typical antipsychotic drug therapy
  clinical effect on symptoms: ameliorates negative symptoms

## CCc1c(CCN2CCC(c3nsc4cc(F)ccc34)CC2)sc2c1CCN(C(C)=O)C2 [Example 86, 6-acetyl-3-ethyl-2-(2-(4-(6-fluoro-1,2-benzisothiazol-3-yl)piperidin-1-yl)ethyl)-4,5,6,7-tetrahydrothieno[2,3-c]pyridine]
[1]
  Ki: 0.17 nM
[2]
  Ki: 0.092 nM
[3]
  Ki: 0.59 nM
[4]
  ED50: 0.54 mg/kg
[5]
  ED50: 0.27 mg/kg

## CCc1c(CCN2CCC(c3coc4ccc(C)cc34)CC2)sc2c1CCN(C(C)=O)C2 [Example 145, 6-acetyl-3-ethyl-2-(2-(4-(5-methylbenzo(b)-furan-3-yl)piperidin-1-yl)ethyl)-4,5,6,7-tetrahydrothieno[2,3-c]pyridine]
[1]
  Ki: 3.8 nM
[2]
  Ki: 2.8 nM
[3]
  Ki: 0.14 nM

## O=C1CCCc2sc(CCN3CCC(c4coc5cc(F)ccc45)CC3)cc2N1 [Example 147, 2-(2-(4-(6-fluorobenzo(b)furan-3-yl)piperidin-1-yl)ethyl)-4,6,7,8-tetrahydro-5H-thieno[3,2-b]azepin-5-one]
[1]
  Ki: 0.4 nM
[2]
  Ki: 0.86 nM
[3]
  Ki: 0.32 nM

## CCc1c(CCN2CCC(c3noc4cc(F)ccc34)CC2)sc2c1CCN(C(C)=O)C2 [Example 73, 6-acetyl-2-(2-(4-(6-fluoro-1,2-benzisoxazol-3-yl)piperidin-1-yl)ethyl)-3-ethyl-4,5,6,7-tetrahydrothieno[2,3-c]pyridine]
[1]
  Ki: 0.25 nM
[2]
  Ki: 0.082 nM
[3]
  Ki: 0.16 nM
[4]
  ED50: 0.25 mg/kg
[5]
  ED50: 0.35 mg/kg

## CC(=O)N1CCc2c(sc(CCN3CCC(c4noc5cc(F)ccc45)CC3)c2C)C1 [Example 42, 6-acetyl-2-(2-(4-(6-fluoro-1,2-benzisoxazol-3-yl)piperidin-1-yl)ethyl)-4,5,6,7-tetrahydro-3-methylthieno[2,3-c]pyridine]
[1]
  Ki: 0.23 nM
[2]
  Ki: 0.2 nM
[3]
  Ki: 1.1 nM
[4]
  ED50: 0.2 mg/kg
[5]
  ED50: 0.19 mg/kg

## CCc1c(CCN2CCC(c3csc4cc(F)ccc34)CC2)sc2c1CCN(C(C)=O)C2 [Example 84, 6-acetyl-3-ethyl-2-(2-(4-(6-fluorobenzo-(b)thiophen-3-yl)piperidin-1-yl)ethyl)-4,5,6,7-tetrahydrothieno[2,3-c]pyridine]
[1]
  Ki: 0.21 nM
[2]
  Ki: 0.18 nM
[3]
  Ki: 0.13 nM
[4]
  ED50: 0.73 mg/kg
[5]
  ED50: 0.95 mg/kg

## CC(=O)N1CCc2c(sc(C)c2CCN2CCC(c3csc4cc(F)ccc34)CC2)C1 [Example 53, 6-acetyl-3-(2-(4-(6-fluorobenzo(b)thiophen-3-yl)piperidin-1-yl)ethyl)-4,5,6,7-tetrahydro-2-methylthieno[2,3-c]pyridine]
[1]
  Ki: 0.15 nM
[2]
  Ki: 0.043 nM
[3]
  Ki: 3.7 nM

## O=C1CC2(CCCC2)CC(=O)N1CCCCN1CCN(c2ncccn2)CC1 [buspirone]
[6]
  clinical effect on symptoms: improved the depression and EPS caused by haloperidol therapy
[7]
  effect on catalepsy induced by haloperidol: reverse catalepsy induced by haloperidol

## O=C1CCCc2sc(CCN3CCC(c4noc5cc(F)ccc45)CC3)cc2N1 [Example 15, 2-(2-(4-(6-fluoro-1,2-benzisoxazol-3-yl)piperidin-1-yl)ethyl)-4,6,7,8-tetrahydro-5H-thieno[3,2-b]azepin-5-one]
[1]
  Ki: 0.065 nM
[2]
  Ki: 0.32 nM
[3]
  Ki: 1.6 nM
[4]
  ED50: 0.063 mg/kg
[5]
  ED50: 0.089 mg/kg

## Cc1nc2n(c(=O)c1CCN1CCC(c3noc4cc(F)ccc34)CC1)CCCC2 [Risperidone]
[8]
  D2 receptor antagonistic properties: potent
[6]
  EPS / side-effects in clinical use: low EPS liability
  clinical effect on symptoms: effective antipsychotic; also recorded: beneficial effects on the negative symptoms of schizophrenia
[6]; listed as risperidone
  EPS / side-effects in clinical use: EPS is appeared in high dose; also recorded: side-effect of internal secretion

## CCc1sc2c(c1CCN1CCC(c3noc4cc(F)ccc34)CC1)CCN(C(C)=O)C2 [Example 32, 6-acetyl-2-ethyl-3-(2-(4-(6-fluoro-1,2-benzisoxazol-3-yl)piperidin-1-yl)ethyl)-4,5,6,7-tetrahydrothieno[2,3-c]pyridine]
[1]
  Ki: 0.1 nM
[2]
  Ki: 0.086 nM
[3]
  Ki: 54 nM

## CCc1c(CCN2CCC(c3coc4cc(F)ccc34)CC2)sc2c1CCN(C(C)=O)C2 [Example 85, 6-acetate-3-ethyl-2-(2-(4-(6-fluorobenzo(b)furan-3-yl)piperidin-1-yl)ethyl)-4,5,6,7-tetrahydro-thieno[2,3-c]pyridine]
[1]
  Ki: 0.52 nM
[2]
  Ki: 0.38 nM
[3]
  Ki: 0.31 nM
[4]
  ED50: 0.79 mg/kg
[5]
  ED50: 0.52 mg/kg

## CC(=O)N1CCc2cc(C(=O)CCCN3CCC(c4noc5cc(F)ccc45)CC3)sc2C1 [Example 43, 6-acetyl-2-(4-(4-(6-fluoro-1,2-benzisoxazol-3-yl)piperidin-1-yl)butyryl)-4,5,6,7-tetrahydrothieno[2,3-c]pyridine]
[1]
  Ki: 1.5 nM
[2]
  Ki: 0.11 nM
[3]
  Ki: 87 nM

## Cc1ccc2occ(C3CCN(CCc4cc5c(s4)CCCC(=O)N5)CC3)c2c1 [Example 148, 2-(2-(4-(5-methylbenzo(b)furan-3-yl)piperidin-1-yl)ethyl)-4,6,7,8-tetrahydro-5H-thieno[3,2-b]azepin-5-one]
[1]
  Ki: 2.3 nM
[2]
  Ki: 8.6 nM
[3]
  Ki: 0.24 nM
